Source: patent US20100081679A1, “DIAMINOPYRIMIDINES AS FUNGICIDES” (Bayer CropScience AG, priority 2007, published 2010)
Marks after values point to notes of the source that are not given here.

Assay: logP determination via retention times, calibrated with unbranched alkan-2-ones
Format: physicochemical
Conditions: 0.1% aqueous formic acid and acetonitrile, linear gradient 10% to 95% acetonitrile
[1] = HPLC on reversed-phase C18, method *: 40° C.
[2] = HPLC on reversed-phase C18 column (EEC Directive 79/831 Annex V.A8), method *: 40° C.

Row | SMILES | logP [1] | logP [2]
1 | Cc1cc(Nc2ncc(Br)c(NC3CC3)n2)ccc1O [compound 116] | 1.35* | 
2 | Brc1cnc(Nc2ccc(OCCN3CCCCC3)cc2)nc1NC1CC1 [compound 117] | 1.07* | 
3 | CC1COC(=O)N1c1ccc(Nc2ncc(Br)c(NCC3CC3)n2)cc1 (centres unmarked) [compound 118] | 1.72* | 
4 | CSc1cccc(Nc2ncc(Cl)c(NCC3CC3)n2)c1 [compound 119] | 2.27* | 
5 | O=C(N(c1ccc(Nc2ncc(Cl)c(NC3CC3)n2)cc1)C1CC1)C(F)(F)F [compound 120] | 2.54* | 
6 | CSc1cccc(Nc2ncc(Br)c(NC3CC3)n2)c1 [compound 121] | 2.44* | 
7 | CC(C)(C)Sc1ccc(Nc2ncc(Cl)c(NC3CC3)n2)cc1 [compound 152] | 3.73* | 
8 | COC(=O)Nc1ccc(Nc2ncc(Cl)c(NCC3CC3)n2)cc1 [compound 153] | 1.44* | 
9 | O=C1CCCN1c1ccc(Nc2ncc(Cl)c(NCC3CC3)n2)cc1 [compound 154] | 1.5* | 
10 | O=C1C=CC(=O)N1c1ccc(Nc2ncc(Cl)c(NC3CC3)n2)cc1 [compound 156] | 1.58* | 
11 | N#Cc1cnc(Nc2ccc(N3CCCC3=O)cc2)nc1NC1CC1 [compound 157] | 1.89* | 
12 | CC(=O)N(C)c1ccc(Nc2ncc(C#N)c(NC3CC3)n2)cc1 [compound 158] | 1.69* | 
13 | COC(=O)Nc1ccc(Nc2ncc(C#N)c(NC3CC3)n2)cc1 [compound 159] | 1.91* | 
14 | O=C1OCCN1c1ccc(Nc2ncc(Cl)c(NCC3CC3)n2)cc1 [compound 160] | 1.39* | 
15 | C#CCS(=O)(=O)c1ccc(Nc2ncc(Cl)c(NC3CC3)n2)cc1 [compound 161] | 2.21* | 
16 | CC(C)(C)OC(=O)NCc1ccc(Nc2ncc(Cl)c(NCC3CC3)n2)cc1 [compound 162] | 2.21* | 
17 | CC(Nc1nc(Nc2ccccc2)ncc1Cl)C1CC1 (centres unmarked) [compound 166] | 2.14* | 
18 | CC(Nc1nc(Nc2ccc(F)cc2)ncc1Cl)C1CC1 (centres unmarked) [compound 167] | 2.27* | 
19 | COC(=O)Nc1ccc(Nc2ncc(Cl)c(NC(C)C3CC3)n2)cc1 (centres unmarked) [compound 168] | 1.64* | 
20 | O=C1OCCN1c1ccc(Nc2ncc(Br)c(NC3CC3)n2)cc1 [compound 175] | 1.37* | 
21 | O=C1NC(=O)C(c2ccc(Nc3ncc(Cl)c(NC4CC4)n3)cc2)N1 (centres unmarked) [compound 176] |  | 0.61*
22 | Cc1cc(O)ccc1Nc1ncc(Cl)c(NC2CC2)n1 [compound 177] |  | 1.09*

Row | SMILES | logP [1] | logP [2]
23 | CN1C(=O)COc2cc(Nc3ncc(Cl)c(NC4CC4)n3)ccc21 [compound 179] |  | 1.47*
24 | Cc1cc(Nc2ncc(Cl)c(NC3CC3)n2)ccc1O [compound 180] |  | 1.09*
25 | O=C1CCCc2ccc(Nc3ncc(Cl)c(NC4CC4)n3)cc2N1 [compound 181] |  | 1.41*
26 | FC(F)C(F)(F)Oc1cccc(Nc2ncc(Cl)c(NC3CC3)n2)c1 [compound 182] |  | 3.03*
27 | CCOc1ccc(Nc2ncc(Cl)c(NC3CC3)n2)cc1 [compound 183] |  | 1.76*
28 | FC(F)(F)Nc1cccc(Nc2ncc(Cl)c(NC3CC3)n2)c1 [compound 184] |  | 3.55*
29 | Clc1cnc(Nc2ccc(NC3CC3)nc2)nc1NC1CC1 [compound 186] |  | 0.92*
30 | Oc1ccc(Nc2ncc(Cl)c(NC3CC3)n2)cc1C1CCCC1 [compound 187] |  | 1.86*
31 | COCC(C)Oc1ccc(Nc2ncc(Cl)c(NC3CC3)n2)cc1 (centres unmarked) [compound 188] |  | 1.73*
32 | Brc1cnc(Nc2ccccc2)nc1NCC1CC1 [compound 189] |  | 1.93*
33 | COc1cc(Nc2ncc(Br)c(NCC3CC3)n2)cc(OC)c1OC [compound 190] |  | 1.88*
34 | COc1ccc(Nc2ncc(Br)c(NCC3CC3)n2)cn1 [compound 191] |  | 1.63*
35 | CN(C)S(=O)(=O)c1cccc(Nc2ncc(Br)c(NCC3CC3)n2)c1 [compound 192] |  | 2.48*
36 | COC(=O)Nc1cccc(Nc2ncc(Cl)c(NC3CC3)n2)c1 [compound 193] |  | 1.44*
37 | CC(C)Oc1cccc(Nc2ncc(Cl)c(NC3CC3)n2)c1 [compound 195] |  | 2.45*
38 | COC(=O)c1cccc(Nc2ncc(Cl)c(NC3CC3)n2)c1 [compound 196] |  | 1.9*
39 | Clc1cnc(Nc2cccc(-c3cccs3)c2)nc1NC1CC1 [compound 197] |  | 2.9*
40 | COc1cccc(Nc2ncc(C(F)(F)F)c(NCC3CC3)n2)c1 [compound 199] |  | 2.91*
41 | CS(=O)(=O)c1ccc(Nc2ncc(C(F)(F)F)c(NCC3CC3)n2)cc1 [compound 200] |  | 2.63*
42 | CC(C)(C)C(=O)Nc1ccc(Nc2ncc(C(F)(F)F)c(NCC3CC3)n2)cc1 [compound 201] |  | 2.6*
43 | CC(=O)N(C)c1ccc(Nc2ncc(C(F)(F)F)c(NCC3CC3)n2)cc1 [compound 202] |  | 2.13*
44 | O=C(Nc1ccc(Nc2ncc(C(F)(F)F)c(NCC3CC3)n2)cc1)C(F)(F)F [compound 203] |  | 2.84*
